One data set deals with HPV-positive mEER tumor. Briefly: In vivo NIR-II tumor imaging, mEER tumor model. On the set-up: species or system mouse. As to conditions: mEER tumor bearing mice, i.v., 5 mg/kg or similar dose. The source says:
(§1) Applicants hypothesized that intravenous administration of NIR-II dyes such as XW-03-66, has the potential to accumulate in these tumors via the EPR effect, thus enabling NIR-II image-guided intraoperative resection with improved adequate margin delineation. To test this hypothesis, two different syngeneic murine models of head and neck squamous cell carcinoma were used: (1) the human papillomavirus (HPV)-positive mEER tumor model, featuring murine pharyngeal epithelial cells transformed with HPV16 E6 and E7 oncogenes and H-ras, and (2) HPV-ve, the carcinogen induced Mouse Oral Cancer 2 (MOC2) tumor model.
(§2) Test mice (n=4 for each model) were first subjected to preoperative MRI scans to establish presence of the tumor. Following MRI confirmation, tumor-bearing mice were administered XW-03-66 (dose=5 mg/kg) by tail vein injection. For comparison, a similar number of mice with MRI-confirmed tumors were injected with clinically approved ICG at a similar dose. To monitor dynamics of tumor uptake, NIR-II images were collected at different time intervals over a period of seven days.

Data set [1] in a line: Optical properties (absorption, emission, quantum yield, solution) in PBS. As to conditions: PBS (50 μM). The class given is physicochemical.
The subject of data set [2] is Mouse Oral Cancer 2 (MOC2) tumor. Briefly: In vivo NIR-II tumor imaging, MOC2 tumor model.
Text: as §1, §2

Data set [3] is described as follows: Photostability under continuous laser excitation in PBS and bovine plasma. The format is physicochemical.
For data set [4] the following is noted: in PBS; cited from earlier work.
A further data set has as its target serum albumin (Homo sapiens, UniProt P02768). As to conditions: binding with serum albumin in solution; cited from earlier work.
The conditions of data set [5]: in 20 minutes post-intravenous injection; cited from earlier work.

Entries after “also recorded” stand apart in the source; their conditions may differ. Where only a bound is given, the exact number is not on record here.

serum albumin, sequence (P02768 25-609): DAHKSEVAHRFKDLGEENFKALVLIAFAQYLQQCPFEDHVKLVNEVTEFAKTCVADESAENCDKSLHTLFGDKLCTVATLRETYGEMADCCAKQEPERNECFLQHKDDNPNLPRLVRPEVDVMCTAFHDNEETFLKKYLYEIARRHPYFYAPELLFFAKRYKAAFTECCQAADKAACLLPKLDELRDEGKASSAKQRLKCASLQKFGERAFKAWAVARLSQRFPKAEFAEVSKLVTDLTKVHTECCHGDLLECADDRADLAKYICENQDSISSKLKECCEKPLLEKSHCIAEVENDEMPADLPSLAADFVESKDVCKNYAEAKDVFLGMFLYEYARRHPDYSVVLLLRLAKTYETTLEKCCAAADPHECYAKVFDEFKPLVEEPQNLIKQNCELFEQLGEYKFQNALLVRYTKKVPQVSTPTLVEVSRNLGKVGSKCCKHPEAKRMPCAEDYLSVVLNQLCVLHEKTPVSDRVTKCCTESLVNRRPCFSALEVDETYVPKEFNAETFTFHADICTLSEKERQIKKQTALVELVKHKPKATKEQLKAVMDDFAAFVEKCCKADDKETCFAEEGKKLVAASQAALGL

As for `CC1(C)C(/C=C/C=C/C=C/C=C2\N(CCCCS(=O)(=O)O)c3ccc4ccccc4c3C2(C)C)=[N+](CCCCS(=O)(=O)[O-])c2ccc3ccccc3c21` [ICG, indocyanine green], the NIR-II tumor signal result is “no signal uptake in either tumor model; also recorded: faint tumor signals at 1-2 h, and no apparent signal thereafter” in the data set on HPV-positive mEER tumor; “no signal uptake in either tumor model; also recorded: faint tumor signal at 1-2 h, and no apparent signal thereafter” in data set [2] (MOC2 tumor bearing mice, i.v., 5 mg/kg or similar dose, 5 mg/kg). Besides, the “dissolution in PBS” value in data set [1] was “dissolve in PBS resulting in clear solutions”. In data set [2] (tumor-bearing mice, model not distinguished), the liver signal result is “observed in the liver in images captured within the first four hours, but completely disappeared thereafter”. In addition, the “time of drop in fluorescence to baseline” value in data set [3] was not above 30 min. Moreover, the “NIR-II QY” value in data set [4] was 0.042%. Also, at serum albumin, the “factor of fluorescence increase compared to solution in PBS” value is reported as 23. Moreover, the “fraction removed from circulation via the liver” value in data set [5] is listed as 97%.

Values taken from patent US20240165273A1, “SELF-ASSEMBLING MOLECULES ENABLING HIGH PERFORMANCE IN VIVO IMAGING IN THE SECOND NEAR INFRARED (NIR-II) WINDOW” (Baylor College of Medicine, priority 2022, published 2024).
